Experimental data reported in publication PMC7101356, “Cross-site and cross-platform variability of automated patch clamp assessments of drug effects on human cardiac currents in recombinant cells” (Scientific Reports, 2020).
Where two headings read alike, the source gives them in different places.

What was measured:
peak hNav1.5 = target: T1, peak hNav1.5 (Homo sapiens, UniProt Q14524); experiment: Automated patch clamp, peak hNav1.5 current block; type: cell-based
T1 construct: expressed in transfected cells; host or cells: HEK293 or CHO, depending on site
Experimental: Peak current was measured during the depolarizing step to −15 mV. Leak current was measured after applying a saturating concentration of a blocker such as lidocaine (2 mM) at the end of each experiment to completely block hNav1.5 current.
(§1) Concentration-response relationships for each test article were independently investigated, i.e., each cell received only one test article, typically evaluating multiple concentrations in a cumulative fashion (lowest to highest concentrations). However, some platforms tested only one concentration per well. Each concentration response was based on a minimum of four concentrations, with a minimum of three wells used for each concentration. In cases of high variability, more cells per concentration were recorded. Prior to drug addition, cells received an addition of vehicle to measure non-test article-related effects such as addition artifacts. At the end of the experiment, a supramaximal concentration of a known inhibitory reference compound was applied to assess leak current and appropriate responsiveness of the test system.
(§2) The steady state current at each concentration was used to determine the concentration-response relationships. Mean concentration-response data were fitted to a standard sigmoidal four-parameter logistic equation (GraphPad Prism 7; GraphPad Inc., La Jolla, CA) of the form: Y=Bottom+(Top−Bottom)/(1+10^∧(LogIC50−X)∗HillSlope) where Y is the current inhibition (in % of pre-drug control), X is the logarithm of drug concentration, and IC50 is the drug concentration producing half-maximal current inhibition. Curve fitting was performed using the following constraints: Top = 100%, Bottom = 0%, Hill Slope <2. No curve fitting was performed in cases with an obvious lack of a concentration-dependent current inhibition and/or small effect size (approximately ≤20%).

late hNav1.5 = target: T2, late hNav1.5 (Homo sapiens, UniProt Q14524); experiment: Automated patch clamp, late hNav1.5 current block (ATX-II activated); type: cell-based; conditions: for IC50: read-out: log IC50, late hNav1.5 inhibition (converted)
T2 construct: expressed in transfected cells; host or cells: HEK293 or CHO, depending on site
Experimental: However, all external solutions contained 30 nM ATX-II in order to activate late current. Late current was measured at its maximum during the repolarizing ramp.
as §1, §2

[1] = based on CiPA evaluations; cited from earlier work
hCav1.2 = hCav1.2 (Homo sapiens, UniProt Q13936); experiment: Automated patch clamp, hCav1.2 current block; conditions: log IC50, half-maximal inhibitory concentration
Chain of hCav1.2 (Q13936 whole entry): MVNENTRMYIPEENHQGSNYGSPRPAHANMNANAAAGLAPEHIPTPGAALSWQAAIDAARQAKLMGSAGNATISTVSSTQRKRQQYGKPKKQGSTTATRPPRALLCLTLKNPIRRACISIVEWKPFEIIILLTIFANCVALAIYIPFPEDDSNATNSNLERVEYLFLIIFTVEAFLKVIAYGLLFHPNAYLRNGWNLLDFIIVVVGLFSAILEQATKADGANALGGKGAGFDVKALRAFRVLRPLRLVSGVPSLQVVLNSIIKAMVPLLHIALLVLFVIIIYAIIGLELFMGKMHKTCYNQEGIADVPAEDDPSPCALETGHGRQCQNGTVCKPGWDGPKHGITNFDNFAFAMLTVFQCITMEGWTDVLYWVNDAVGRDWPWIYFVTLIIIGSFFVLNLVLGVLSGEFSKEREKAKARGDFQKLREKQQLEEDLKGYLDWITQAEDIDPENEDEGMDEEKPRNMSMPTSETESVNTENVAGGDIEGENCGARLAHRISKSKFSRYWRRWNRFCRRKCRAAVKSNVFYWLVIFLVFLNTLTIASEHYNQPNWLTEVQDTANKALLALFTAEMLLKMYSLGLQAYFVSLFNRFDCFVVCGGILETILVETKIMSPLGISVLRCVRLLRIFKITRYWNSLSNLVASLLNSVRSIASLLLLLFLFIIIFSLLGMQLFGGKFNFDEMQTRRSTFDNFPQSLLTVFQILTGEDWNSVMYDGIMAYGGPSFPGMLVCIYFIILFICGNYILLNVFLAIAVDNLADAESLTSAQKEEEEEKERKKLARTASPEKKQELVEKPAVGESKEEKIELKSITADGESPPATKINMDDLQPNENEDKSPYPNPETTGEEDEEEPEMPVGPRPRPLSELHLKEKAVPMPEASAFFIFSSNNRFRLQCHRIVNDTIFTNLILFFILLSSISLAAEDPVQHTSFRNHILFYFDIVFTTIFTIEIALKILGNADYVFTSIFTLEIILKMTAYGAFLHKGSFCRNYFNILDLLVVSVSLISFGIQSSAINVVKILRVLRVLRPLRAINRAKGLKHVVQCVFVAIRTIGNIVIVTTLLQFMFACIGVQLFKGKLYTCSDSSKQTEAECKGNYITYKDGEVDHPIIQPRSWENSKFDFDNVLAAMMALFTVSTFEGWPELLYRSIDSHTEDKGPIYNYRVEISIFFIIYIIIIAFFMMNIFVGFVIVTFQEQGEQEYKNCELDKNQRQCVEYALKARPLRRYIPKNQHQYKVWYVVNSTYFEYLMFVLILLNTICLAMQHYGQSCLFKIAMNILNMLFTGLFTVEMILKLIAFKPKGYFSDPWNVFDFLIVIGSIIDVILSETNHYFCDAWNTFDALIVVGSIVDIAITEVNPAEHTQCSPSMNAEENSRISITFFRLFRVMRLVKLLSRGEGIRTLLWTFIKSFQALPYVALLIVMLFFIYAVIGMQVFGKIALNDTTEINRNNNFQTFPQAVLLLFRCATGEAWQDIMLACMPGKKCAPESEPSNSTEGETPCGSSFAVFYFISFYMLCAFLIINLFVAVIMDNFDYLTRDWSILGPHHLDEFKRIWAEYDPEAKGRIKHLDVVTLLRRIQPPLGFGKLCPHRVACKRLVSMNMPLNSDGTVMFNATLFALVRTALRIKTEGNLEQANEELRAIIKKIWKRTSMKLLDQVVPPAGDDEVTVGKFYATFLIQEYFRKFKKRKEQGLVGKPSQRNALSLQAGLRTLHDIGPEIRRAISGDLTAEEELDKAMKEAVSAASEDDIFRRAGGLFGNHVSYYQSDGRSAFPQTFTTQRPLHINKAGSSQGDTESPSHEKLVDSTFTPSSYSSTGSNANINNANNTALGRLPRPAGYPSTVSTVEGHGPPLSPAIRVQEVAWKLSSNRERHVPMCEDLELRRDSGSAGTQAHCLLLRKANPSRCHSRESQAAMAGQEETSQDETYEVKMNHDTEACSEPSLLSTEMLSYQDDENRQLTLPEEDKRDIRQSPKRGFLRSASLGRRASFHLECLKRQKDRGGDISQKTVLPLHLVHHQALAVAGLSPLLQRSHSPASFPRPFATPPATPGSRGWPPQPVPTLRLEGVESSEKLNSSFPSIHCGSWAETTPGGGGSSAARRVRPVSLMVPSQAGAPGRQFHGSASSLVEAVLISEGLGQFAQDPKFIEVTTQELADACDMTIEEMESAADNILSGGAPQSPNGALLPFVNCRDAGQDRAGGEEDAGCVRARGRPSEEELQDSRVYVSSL
Chain of hCav1.2 (Q08289 whole entry partner): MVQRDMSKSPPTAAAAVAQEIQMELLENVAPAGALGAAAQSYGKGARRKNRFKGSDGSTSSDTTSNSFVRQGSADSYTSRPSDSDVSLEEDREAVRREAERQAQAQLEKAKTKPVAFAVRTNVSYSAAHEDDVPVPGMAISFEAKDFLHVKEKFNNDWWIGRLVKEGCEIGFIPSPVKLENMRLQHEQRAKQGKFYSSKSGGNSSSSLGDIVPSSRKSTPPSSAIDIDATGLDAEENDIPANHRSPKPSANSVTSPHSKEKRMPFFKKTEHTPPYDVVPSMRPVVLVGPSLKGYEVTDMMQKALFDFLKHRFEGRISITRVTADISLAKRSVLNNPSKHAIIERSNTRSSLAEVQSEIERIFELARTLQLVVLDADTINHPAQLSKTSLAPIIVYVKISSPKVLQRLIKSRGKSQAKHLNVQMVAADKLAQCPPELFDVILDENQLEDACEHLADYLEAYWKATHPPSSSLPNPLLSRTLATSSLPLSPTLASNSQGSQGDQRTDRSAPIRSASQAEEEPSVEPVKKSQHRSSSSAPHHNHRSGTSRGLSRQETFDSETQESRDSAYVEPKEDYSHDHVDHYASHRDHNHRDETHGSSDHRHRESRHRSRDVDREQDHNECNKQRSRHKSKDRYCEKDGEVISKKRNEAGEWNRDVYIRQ
Chain of hCav1.2 (P54289 25-956 partner limits assumed): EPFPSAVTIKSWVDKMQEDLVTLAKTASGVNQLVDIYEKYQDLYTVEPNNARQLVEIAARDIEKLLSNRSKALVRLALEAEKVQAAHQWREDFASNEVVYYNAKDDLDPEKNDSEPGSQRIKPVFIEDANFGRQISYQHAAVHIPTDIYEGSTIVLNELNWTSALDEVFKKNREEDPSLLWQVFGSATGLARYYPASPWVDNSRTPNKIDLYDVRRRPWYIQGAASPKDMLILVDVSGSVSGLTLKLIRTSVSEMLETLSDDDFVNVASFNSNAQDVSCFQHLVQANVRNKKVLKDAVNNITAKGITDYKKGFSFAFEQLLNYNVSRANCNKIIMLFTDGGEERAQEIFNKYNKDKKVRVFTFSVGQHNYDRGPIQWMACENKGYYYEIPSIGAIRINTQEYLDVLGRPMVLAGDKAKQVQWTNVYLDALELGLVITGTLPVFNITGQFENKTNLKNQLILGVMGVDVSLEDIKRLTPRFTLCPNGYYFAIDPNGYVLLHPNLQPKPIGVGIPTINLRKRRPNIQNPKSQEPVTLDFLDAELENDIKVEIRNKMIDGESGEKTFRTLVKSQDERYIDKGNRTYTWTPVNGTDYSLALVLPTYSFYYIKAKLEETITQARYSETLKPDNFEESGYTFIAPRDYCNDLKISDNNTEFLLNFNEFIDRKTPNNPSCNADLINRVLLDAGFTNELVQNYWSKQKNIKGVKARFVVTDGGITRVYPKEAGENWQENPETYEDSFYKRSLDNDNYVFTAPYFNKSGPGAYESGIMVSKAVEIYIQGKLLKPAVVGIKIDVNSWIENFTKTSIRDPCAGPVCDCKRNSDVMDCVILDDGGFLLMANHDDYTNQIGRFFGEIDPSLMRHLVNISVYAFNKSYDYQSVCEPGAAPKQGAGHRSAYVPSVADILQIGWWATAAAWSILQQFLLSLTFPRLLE
Chain of hCav1.2 (P54289 957-1103 partner limits assumed): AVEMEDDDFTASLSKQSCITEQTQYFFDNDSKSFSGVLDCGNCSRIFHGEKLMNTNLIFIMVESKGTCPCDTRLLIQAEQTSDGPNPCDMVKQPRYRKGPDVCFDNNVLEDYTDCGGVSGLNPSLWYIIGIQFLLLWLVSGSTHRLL
Experimental: Peak current was measured during the step to 0 mV. Leak current was measured after applying a saturating concentration of a blocker such as cadmium (200 µM) at the end of each experiment to completely block hCav1.2 current.
Concentration-response relationships for each test article were independently investigated, i.e., each cell received only one test article, typically evaluating multiple concentrations in a cumulative fashion (lowest to highest concentrations). However, some platforms tested only one concentration per well. Each concentration response was based on a minimum of four concentrations, with a minimum of three wells used for each concentration. In cases of high variability, more cells per concentration were recorded. Prior to drug addition, cells received an addition of vehicle to measure non-test article-related effects such as addition artifacts. At the end of the experiment, a supramaximal concentration of a known inhibitory reference compound was applied to assess leak current and appropriate responsiveness of the test system. While it was recommended that a separate group of cells (n ≥ 3) be recorded for each experimental day to determine the baseline response to vehicle and to address day-to-day variability, this was not verified.
These criteria were applied to all APC platforms.
as §2

[2] = site_platform s06_p4, 1.00E-05 mol/L
[3] = site_platform s06_p4, 3.00E-07 mol/L
[4] = site_platform s07_p6, 1.00E-05 mol/L
[5] = site_platform s07_p6, 3.00E-07 mol/L
[6] = site_platform s13_p2, 1.00E-05 mol/L
[7] = site_platform s13_p2, 3.00E-07 mol/L
[8] = site_platform s14_p1, 1.00E-05 mol/L
[9] = site_platform s14_p1, 3.00E-07 mol/L

## Cc1nccn1CC1CCc2c(c3ccccc3n2C)C1=O (stereo not shown) [ond, ondansetron]
Peak hNav1.5; no inhibition = no obvious concentration-dependent current block and/or no curve fitting performed, all sites
  peak hNav1.5 Na+ current inhibition (result in words): no inhibition
Peak hNav1.5; site_platform s01_p1
  log IC50, peak hNav1.5 Na+ current inhibition: no inh.
Peak hNav1.5; site_platform s01_p1, 1.00E-05 mol/L
  Peak hNav1.5 Na+ current inhibition, Mean: 56.4%
Peak hNav1.5; site_platform s01_p1, 3.00E-07 mol/L
  Peak hNav1.5 Na+ current inhibition, Mean: 31.6%
Peak hNav1.5; site_platform s02_p2
  log IC50, peak hNav1.5 Na+ current inhibition: no inh.
Peak hNav1.5; site_platform s02_p2, 1.00E-05 mol/L
  Peak hNav1.5 Na+ current inhibition, Mean: 9.4%
Peak hNav1.5; site_platform s02_p2, 3.00E-07 mol/L
  Peak hNav1.5 Na+ current inhibition, Mean: 1.4%
Peak hNav1.5; site_platform s04_p3
  log IC50, peak hNav1.5 Na+ current inhibition: no inh.
Peak hNav1.5; site_platform s04_p3, 1.00E-05 mol/L
  Peak hNav1.5 Na+ current inhibition, Mean: 19.5%
Peak hNav1.5; site_platform s04_p3, 3.00E-07 mol/L
  Peak hNav1.5 Na+ current inhibition, Mean: 4.4%
Peak hNav1.5; site_platform s06_p4
  log IC50, peak hNav1.5 Na+ current inhibition: no inh.
Peak hNav1.5; [2]
  Peak hNav1.5 Na+ current inhibition, Mean: 19.0%
Peak hNav1.5; [3]
  Peak hNav1.5 Na+ current inhibition, Mean: 0.4%
Peak hNav1.5; site_platform s07_p6
  log IC50, peak hNav1.5 Na+ current inhibition: no inh.
Peak hNav1.5; [4]
  Peak hNav1.5 Na+ current inhibition, Mean: 17.1%
Peak hNav1.5; [5]
  Peak hNav1.5 Na+ current inhibition, Mean: 1.7%
Peak hNav1.5; site_platform s10_p3
  log IC50, peak hNav1.5 inhibition: no inh.
Peak hNav1.5; site_platform s10_p3, 1.00E-05 mol/L
  Peak hNav1.5 Na+ current inhibition, Mean: 20.6%
Peak hNav1.5; site_platform s10_p3, 3.00E-07 mol/L
  Peak hNav1.5 Na+ current inhibition, Mean: 0.1%
Peak hNav1.5; site_platform s11_p1
  log IC50, peak hNav1.5 inhibition: no inh.
Peak hNav1.5; site_platform s11_p1, 1.00E-05 mol/L
  Peak hNav1.5 Na+ current inhibition, Mean: 15.2%
Peak hNav1.5; site_platform s11_p1, 3.00E-07 mol/L
  Peak hNav1.5 Na+ current inhibition, Mean: 6.1%
Peak hNav1.5; site_platform s12_p2
  log IC50, peak hNav1.5 inhibition: no inh.
Peak hNav1.5; site_platform s12_p2, 1.00E-05 mol/L
  Peak hNav1.5 Na+ current inhibition, Mean: 12.2%
Peak hNav1.5; site_platform s12_p2, 3.00E-07 mol/L
  Peak hNav1.5 Na+ current inhibition, Mean: 3.0%
Peak hNav1.5; site_platform s13_p2
  log IC50, peak hNav1.5 inhibition: no inh.
Peak hNav1.5; [6]
  Peak hNav1.5 Na+ current inhibition, Mean: 7.0%
Peak hNav1.5; [7]
  Peak hNav1.5 Na+ current inhibition, Mean: -3.4%
Peak hNav1.5; site_platform s14_p1
  log IC50, peak hNav1.5 inhibition: no inh.
Peak hNav1.5; [8]
  Peak hNav1.5 Na+ current inhibition, Mean: 21.3%
Peak hNav1.5; [9]
  Peak hNav1.5 Na+ current inhibition, Mean: 3.9%
Peak hNav1.5; site_platform s15_p1
  log IC50, peak hNav1.5 inhibition: no inh.
Peak hNav1.5; site_platform s15_p1, 1.00E-05 mol/L
  Peak hNav1.5 Na+ current inhibition, Mean: 43.9%
Peak hNav1.5; site_platform s15_p1, 3.00E-07 mol/L
  Peak hNav1.5 Na+ current inhibition, Mean: 11.8%
Peak hNav1.5; site_platform s16_p3
  log IC50, peak hNav1.5 inhibition: no inh.
Peak hNav1.5; site_platform s16_p3, 1.00E-05 mol/L
  Peak hNav1.5 Na+ current inhibition, Mean: 14.4%
Peak hNav1.5; site_platform s16_p3, 3.00E-07 mol/L
  Peak hNav1.5 Na+ current inhibition, Mean: 2.8%
Peak hNav1.5; site_platform s17_p1
  log IC50, peak hNav1.5 inhibition: no inh.
Peak hNav1.5; site_platform s17_p1, 1.00E-05 mol/L
  Peak hNav1.5 Na+ current inhibition, Mean: 33.4%
Peak hNav1.5; site_platform s17_p1, 3.00E-07 mol/L
  Peak hNav1.5 Na+ current inhibition, Mean: -17.0%
Peak hNav1.5; site_platform s18_p1
  log IC50, peak hNav1.5 inhibition: no inh.
Peak hNav1.5; site_platform s18_p1, 1.00E-05 mol/L
  Peak hNav1.5 Na+ current inhibition, Mean: 29.7%
Peak hNav1.5; site_platform s18_p1, 3.00E-07 mol/L
  Peak hNav1.5 Na+ current inhibition, Mean: 27.5%
Peak hNav1.5; site_platform s19_p3
  log IC50, peak hNav1.5 inhibition: no inh.
Peak hNav1.5; site_platform s19_p3, 1.00E-05 mol/L
  Peak hNav1.5 Na+ current inhibition, Mean: 24.0%
Peak hNav1.5; site_platform s19_p3, 3.00E-07 mol/L
  Peak hNav1.5 Na+ current inhibition, Mean: 3.5%
Late hNav1.5; site_platform s06_p4
  nH, Hill slope, late hNav1.5 inhibition: 1.28
  IC50: 6.92 µM
Late hNav1.5; [2]
  Late hNav1.5 Na+ current inhibition, Mean: 61.7%
Late hNav1.5; [3]
  Late hNav1.5 Na+ current inhibition, Mean: 0.5%
Late hNav1.5; site_platform s07_p6
  nH, Hill slope, late hNav1.5 inhibition: 1.57
  IC50: 10.2 µM
Late hNav1.5; [4]
  Late hNav1.5 Na+ current inhibition, Mean: 47.6%
Late hNav1.5; [5]
  Late hNav1.5 Na+ current inhibition, Mean: -14.8%
Late hNav1.5; site_platform s13_p2
  log IC50, late hNav1.5 inhibition: no inh.
Late hNav1.5; [6]
  Late hNav1.5 Na+ current inhibition, Mean: 20.9%
Late hNav1.5; [7]
  Late hNav1.5 Na+ current inhibition, Mean: 9.2%
Late hNav1.5; site_platform s14_p1
  log IC50, late hNav1.5 inhibition: no inh.
Late hNav1.5; [8]
  Late hNav1.5 Na+ current inhibition, Mean: 40.9%
Late hNav1.5; [9]
  Late hNav1.5 Na+ current inhibition, Mean: 20.2%
[1]
  TdP Risk Category: Intermediate
hCav1.2; site s04_p3
  IC50: 155 µM
hCav1.2; site s14_p1
  IC50: 28.8 µM
hCav1.2; site s16_p3
  IC50: 6.61 µM
